The source of these data is patent US10149809B2, “Skin aging inhibitor and concentrate of resveratrol 3-O-α-glucoside” (priority 2014, dated 2018).

One data set deals with IL-1β gene. Kind of data set: Reduction of inflammation through pretreatment: IL-1β gene expression, Poly I:C. In kind it is cell-based. The conditions noted are these: normal human epidermal keratinocytes, pretreatment 0.001 wt % 24 hours, then Poly I:C 1 μg/mL 9 hours; control = 100%, comparative group 871. The procedure:
Normal human epidermal keratinocytes were seeded into 12-well culture plates at 5×10^4 cells per well. As the medium, EpiLife KG-2 medium (basal medium) supplemented with insulin, hEGF, hydrocortisone, anti-microbial agents, and BPE was used, and the cells were preincubated in 5% CO2 at 37° C. for 48 hours. Further, the cells were incubated for additional 24 hours in a medium obtained by removing hydrocortisone only from the basal medium (assay medium). Next, the medium was replaced with a sample medium obtained by supplementing the assay medium with resveratrol 3-O-α-glucoside to a concentration of 0.001 wt %, the cells were cultured in 5% CO2 at 37° C. for 24 hours, and the cultured cells were pretreated with resveratrol 3-O-α-glucoside. […] After the medium was removed and the cells were washed with PBS, total RNA was extracted from the cells, and the level of expression of the proinflammatory cytokine IL-1β gene was quantified by real time PCR. […]
Taking as 100% the level of expression of the IL-1β gene for the control group, a relative ratio of the expression level of the IL-1β gene for each of the comparative group and the resveratrol 3-O-α-glucoside-supplemented group (IL-1β gene expression ratio, %) was calculated. […]

The nature of data set [1]: SOD-like activity (SOD Test Wako kit). The format is biochemical. The procedure: Resveratrol 3-O-α-glucoside was dissolved in a 15% ethanol solution to a concentration of 5, 10, or 20 mmol/L, and the resulting solution was used as a sample solution.
Using the sample solution prepared as above, the SOD-like activity was evaluated using an SOD measurement kit (SOD Test Wako; Wako Pure Chemical Industries, Ltd.).

Data set [2] deals with hyaluronidase (from bovine testes). Nature of the data set: Hyaluronidase inhibitory effect. In kind it is biochemical. Particulars: pH 4.0, 37° C., 40 minutes. On the procedure: The following sample solution, enzyme solution, and hyaluronic acid solution were prepared.
Resveratrol 3-O-α-glucoside was dissolved in a 0.2 M acetate buffer solution (pH 4.0) to a concentration of 0.025 or 0.1 wt %, and the resulting solution was used as a sample solution.
In 1.5 mL of a 0.2 M acetate buffer solution (pH 4.0), 7400 units of hyaluronidase (from bovine testes; Sigma-Aldrich Co. LLC.) were dissolved, and the resulting solution was used as the enzyme solution.
In 12.5 mL of a 0.2 M acetate buffer solution (pH 4.0), 10 mg of sodium hyaluronate (from crista galli; Wako Pure Chemical Industries, Ltd.) was dissolved, and the resulting solution was used as the hyaluronic acid solution.
Using each of the solutions prepared as above, the hyaluronidase inhibitory effect was evaluated in accordance with the following procedures. One-hundred microliters of the sample solution, 50 μL of the enzyme solution, and 200 μL of the hyaluronic acid solution were mixed and reacted at 37° C. for 40 minutes. Then, 100 μL each of a 0.4 M aqueous solution of sodium hydroxide and a 1 M aqueous solution of potassium borate were added to the mixture, and the reaction was stopped. […] The absorbance at 585 nm was subsequently measured. From the measured value of absorbance, the hyaluronidase inhibition ratio was determined in accordance with the equation shown below. […]

Data set [3] concerns skin model (EPI-200X; MatTek). In kind it is in vitro ADME, human. The procedure:
Using a three-dimensional human skin model, permeabilities of resveratrol 3-O-α-glucoside and resveratrol into the skin model when administered via the skin surface were compared.
Resveratrol 3-O-α-glucoside or resveratrol (Tokyo Chemical Industry Co., Ltd.) was prepared into a 0.2 wt % solution or suspension with the addition of PBS, and the resulting solution was used as a test substance. The skin model (EPI-200X; MatTek) was loaded into a special fixture (EPI-100-FIX; MatTek), and placed in the 6-well plate of the receiver. One-hundred microliters of the test substance were added to the horny layer side, and 5 mL of PBS was added to the receiver side. After being allowed to stand at 37° C. for 20 hours, the skin model was collected, and the surface of the skin model was washed well with PBS. The skin model after being washed was homogenized in PBS. After the homogenate was centrifuged, resveratrols in the supernatant were quantified using HPLC under the same conditions as described in Production Example 1 above, and the amount of resveratrols was converted into the equivalent of agly cones.

With `OC[C@H]1O[C@H](Oc2cc(O)cc(C=Cc3ccc(O)cc3)c2)[C@H](O)[C@@H](O)[C@@H]1O` [Resveratrol 3-O-α-Glucoside, resveratrol 3-O-α-glucoside], the “IL-1β Gene Expression Ratio (%)” value in the data set with IL-1β gene turned out to be 697%. The “SOD-Like Activity (%)” value in data set [1] (5 mmol/L in the sample solution (15% ethanol)) is given as 18%; in data set [1] (10 mmol/L in the sample solution (15% ethanol)), 35%; in data set [1] (20 mmol/L in the sample solution (15% ethanol)) it was 47%. In addition, the “Hyaluronidase Inhibition Ratio (%)” value in data set [2] (0.025 wt % in the sample solution) stood at 7.6%; in data set [2] (0.1 wt % in the sample solution) it was 20.6%. Further, the “amount of permeation into the skin model relative to resveratrol” value in data set [3] is 3.5 times.
